Assay results reported in US20260184675A1, “CHIRAL ISOMERIC SULFITE COMPOUND AND APPLICATION THEREOF” (Chengdu Hanova BioSciences Co., Ltd, priority 2024, published 2026).

Test system: eggs of Tetranychus cinnabarinus
Experiment: Effects of sulfite compounds 1-30 and 1′-30′ on hatching of eggs of Tetranychus cinnabarinus at 100 ppm, leaf disc method
Format: in vivo
Conditions: 7 days after insecticide delivery
Method: • (1) Preparation of leaf discs containing eggs: 20 female adult mites of Tetranychus cinnabarinus were transferred onto leaf discs of Vicia faba with a diameter of 2.0 cm (with wetted filter paper at the bottom), then covered it with a lidded culture dish and cultivated under moisturizing conditions, the adult mites were removed within 36 hours and microscopic examination and counting were performed on leaf discs containing eggs. • (2) Investigation of egg population base: Before pesticide soaking, a microscopic examination was conducted on the egg basic number of each leaf disc, with 2 replicates set for each treatment. • (3) Pesticide soaking treatment: The leaf butterflies loaded with mite eggs were soaked in clear water and sulfite compounds for 10 seconds, respectively, then taken out and cultivated under moisturizing conditions. Each treatment should be repeated for no less than 3 times. • (4) Cultivation and observation: The […] were cultivated under normal conditions. Five days after insecticide delivery, the hatching status of mite eggs was investigated. • Note: The temperature and humidity conditions of the constant temperature and humidity incubator after the treatment should be controlled so as to avoid excessive temperature differences, which may cause generation and dripping of condensate water in the culture dish, resulting in abnormal death of eggs due to soaking in water; it is also necessary to ensure sufficient strong ambient light, without directing irradiating the leaves. • (5) Survey of Results: The experimental materials of each treatment group were regularly hydrated and moisturized, and the hatching of eggs was observed. On the 7th day after insecticide delivery, the number of hatched eggs for each treatment was recorded, and the survey of results was recorded in the original notebook. According to the experimental requirements and characteristics of agents, the survey time can be shortened or extended.
• 1) Surveying and recording the number of hatched eggs for each treatment. • 2) Photographing and recording whether there was any pesticide damage to the leaf discs of Vicia faba. • 3) Recording the developmental status of experimental mite eggs, behavior status of nymph mites, including abnormal phenomena such as delayed or stopped development of mite eggs, difficulty in breaking hull for nymph mites, or painful struggles after hatching, etc. • (6) Calculation method: Based on the survey data, the prevention and control effect of each treatment was calculated according to the following formula, and the calculation results were kept to two decimal places. […]

Structure (SMILES): CC(COS(=O)OCCF)Oc1cc(Cl)ccc1Cl (stereo not shown) [Compound 7]
- Hatching rate (%), Replicate 2 (replicate 2): 8.15%

Structure (SMILES): CC(COc1cc(Cl)ccc1Cl)OS(=O)OCCBr (stereo not shown) [Compound 9′]
- Hatching rate (%), Replicate 3: 15.15%

Structure (SMILES): CC(C)(COS(=O)OCCBr)Oc1ccc(Cl)cc1Cl (stereo not shown) [Compound 12′]
- Hatching rate (%), Replicate 3: 10.39%

Structure (SMILES): O=C(OCCF)OC1COCC1Oc1ccc(Cl)cc1Cl (stereo not shown) [Compound 25]
- Hatching rate (%), Replicate 3: 0.00%
